Experimental data reported in ChEMBL document CHEMBL4339226, “Novel Compounds Targeting the RNA-Binding Protein HuR. Structure-Based Design, Synthesis, and Interaction Studies” (ACS Med Chem Lett, 2019).
Calls of active or inactive are those of the source. The rule behind the calls is not given here.

How the values were obtained:
[1] = biological target: ELAV-like protein 1 (Homo sapiens) (UniProt Q15717); test: Binding affinity to HuR (unknown origin) assessed as absolute STD percentage for ring B moiety by 1H-STD-NMR spectroscopic analysis
ELAV-like protein 1 (Homo sapiens), sequence (Q15717 whole entry): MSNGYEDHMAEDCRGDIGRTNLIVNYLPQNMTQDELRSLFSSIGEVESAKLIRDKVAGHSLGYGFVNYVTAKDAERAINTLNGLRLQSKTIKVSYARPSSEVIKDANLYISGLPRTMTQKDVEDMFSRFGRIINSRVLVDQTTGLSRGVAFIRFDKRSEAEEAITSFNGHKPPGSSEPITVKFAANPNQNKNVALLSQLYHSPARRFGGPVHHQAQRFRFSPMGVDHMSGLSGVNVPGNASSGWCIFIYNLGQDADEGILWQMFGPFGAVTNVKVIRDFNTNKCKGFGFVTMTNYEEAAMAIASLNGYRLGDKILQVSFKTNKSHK

[2] = biological target: ELAV-like protein 1 (Homo sapiens) (UniProt Q15717); test: Binding affinity to HuR (unknown origin) assessed as absolute STD percentage for protons of the amino chain (H14, H15, and H16) by 1H-STD-NMR spectroscopic analysis
[3] = biological target: ELAV-like protein 1 (Homo sapiens) (UniProt Q15717); test: Binding affinity to HuR (unknown origin) assessed as absolute STD percentage for isopropyl moiety by 1H-STD-NMR spectroscopic analysis
[4] = biological target: ELAV-like protein 1 (Homo sapiens) (UniProt Q15717); test: Binding affinity to HuR (unknown origin) assessed as absolute STD percentage for ring A moiety by 1H-STD-NMR spectroscopic analysis
[5] = Solubility of the compound; type: physicochemical
[6] = biological target: ELAV-like protein 1 (Homo sapiens) (UniProt Q15717); test: Binding affinity to HuR (unknown origin) assessed as absolute STD percentage for pyridone moiety by 1H-STD-NMR spectroscopic analysis
[7] = biological target: ELAV-like protein 1 (Homo sapiens) (UniProt Q15717); test: Binding affinity to HuR (unknown origin) assessed as absolute STD percentage for ring C moiety by 1H-STD-NMR spectroscopic analysis

Row | SMILES | Activity [1] [%] | Activity [2] | Activity [3] [%] | Activity [4] [%] | solubility [5] | Activity [6] [%] | Activity [7] [%]
1 | COc1cc(OC)cc([C@@H]2[C@@H](C(=O)NCCNCc3ccccc3)CCC(=O)N2CC(C)C)c1 (racemic) | 0.03 | inactive | 0.4 | 0.2 | – | – | –
2 | COc1cc(OC)cc(-c2nc3sccn3c2NCCNC(=O)OCc2ccccc2)c1.Cl | – | – | – | – | Insoluble | – | –
3 | CC(C)Cn1cnc(-c2cccc(Oc3ccccc3)c2)c1-c1ccc(=O)[nH]c1 | – | – | 0.3 | – | – | 1.2 | –
4 | O=C(c1ccc(O)cc1)N(CCc1cc(O)cc(O)c1)Cc1cccc(Cl)c1 | 0.36 | – | – | 0.4 | – | – | 0.25
